Test results reported in doi:10.1101/2024.05.06.592687v1 (bioRxiv, 2024).
“Also recorded” adds a separate entry of the source.

Assays:
[1] = Hexapeptide aggregative properties; assay type: physicochemical; conditions: for Aggregation properties, in words: 800 μM (16p: 288 μM)
[2] = assay type: physicochemical; conditions: 800 μM
[3] = Negative staining transmission electron microscopy of peptide structures; assay type: physicochemical; conditions: for Structure (TEM): negative staining, 1% uranyl acetate; for Diameter / Structures comments / Pitch length / Width / Diameter, Tight / Diameter, Wide: negative staining TEM
[4] = Cryo-EM of peptide sample; assay type: physicochemical; conditions: data not shown
[5] = Critical assembly concentration; assay type: physicochemical; conditions: sedimentable versus total peptide concentration
[6] = Reversibility of polymerized structures by dilution; assay type: physicochemical; conditions: polymerized at 2x Cr, diluted 8-fold to 0.25 Cr
[7] = Hexapeptide amyloidogenicity; assay type: physicochemical; conditions: 800 μM (16p: 288 μM)
[8] = Solubility of hexapeptides in water; assay type: physicochemical; conditions: deionized water

## IKQVYV [5p]
[1]
  Aggregation properties, in words: very weak
[2]
  Classification of the peptide (aggregative / amyloid / soluble), in words: entirely soluble; also recorded: non-aggregative

## IYVQKV [9p]
[1]
  Aggregation properties, in words: no
[2]
  Classification of the peptide (aggregative / amyloid / soluble), in words: entirely soluble; also recorded: non-aggregative
[3]
  Structure (TEM): crystal structures
[4]
  Structures seen by Cryo-EM: absence of structures

## KQIVYV [20p]
[2]
  Classification of the peptide (aggregative / amyloid / soluble), in words: aggregative
[3]
  Diameter: 13 ± 2 nm
  Structures comments: Homogeneous / bundles
  Structure (TEM): fibrillar structures; also recorded: Filament/strand bundles

## KVQIVY [10p]
[2]
  Classification of the peptide (aggregative / amyloid / soluble), in words: aggregative
[3]
  Structures comments: Heterogeneous
  Structure (TEM): structures resembling ribbons; also recorded: Rather flat and tight ribbons

## KVQYVI [14p]
[1]
  Aggregation properties, in words: no
[2]
  Classification of the peptide (aggregative / amyloid / soluble), in words: entirely soluble

## KYIQVV [2p]
[2]
  Classification of the peptide (aggregative / amyloid / soluble), in words: aggregative; also recorded: strong aggregation potential
[3]
  Diameter: 10 ± 2 nm
  Structure (TEM): structures resembling ribbons; also recorded: Ribbons/ Filaments

## KYVIQV [15p]
[5]
  Slope of the Cr linear regression: 1.1
[6]
  Reversion of structures after dilution, in words: only partial
[2]
  Classification of the peptide (aggregative / amyloid / soluble), in words: aggregative; also recorded: strong aggregation potential
[3]
  Pitch length: 196 ± 34 nm
  Structures comments: Rather homogeneous
  Width: 21 ± 2 nm
  Structure (TEM): structures resembling ribbons; also recorded: Twisted ribbons

## QKVVYI [18p]
[5]
  Slope of the Cr linear regression: 0.84
[6]
  Reversion of structures after dilution, in words: almost total reversion
[2]
  Classification of the peptide (aggregative / amyloid / soluble), in words: amyloid
[3]
  Diameter, Tight: 9 nm
  Diameter, Wide: 18 nm
  Pitch length: 107 ± 14 nm
  Structures comments: Heterogeneous
  Width: 29 ± 7 nm
  Structure (TEM): fibrillar structures
[3]; listed as 18p*
  Structure (TEM): Twisted ribbons/fibers

## QKVYIV [19p]
[2]
  Classification of the peptide (aggregative / amyloid / soluble), in words: aggregative
[3]
  Structures comments: Few twists and bundles
  Width: 11± 3 nm
  Structure (TEM): fibrillar structures; also recorded: Tangle ribbons

## QKYIVV [8p]
[1]
  Aggregation properties, in words: no
[2]
  Classification of the peptide (aggregative / amyloid / soluble), in words: entirely soluble

## QVIKYV [23p]
[1]
  Aggregation properties, in words: very weak
[2]
  Classification of the peptide (aggregative / amyloid / soluble), in words: entirely soluble; also recorded: non-aggregative

## VKVIYQ [7p]
[7]
  Amyloidogenicity by Thioflavin T fluorescence, in words: without fluorescence
[2]
  Classification of the peptide (aggregative / amyloid / soluble), in words: aggregative; also recorded: strong aggregation potential
[3]
  Diameter: 17 ± 4 nm
  Pitch length: 138 ± 12 nm
  Structures comments: Homogeneous perpendicular breaks
  Structure (TEM): fibrillar structures; also recorded: Twisted fibers

## VKVYIQ [11p]
[5]
  Slope of the Cr linear regression: 0.74
[6]
  Reversion of structures after dilution, in words: almost total reversion
[2]
  Classification of the peptide (aggregative / amyloid / soluble), in words: amyloid; also recorded: amyloidogenic character
[3]
  Diameter: 5 ± 1 nm
  Structure (TEM): fibrillar structures
[3]; listed as 11p*
  Structure (TEM): Stringy filaments/fibers

## VKYQVI [3p]
[1]
  Aggregation properties, in words: very weak
[2]
  Classification of the peptide (aggregative / amyloid / soluble), in words: entirely soluble; also recorded: non-aggregative

## VQIVYK [ß1, reference compound]
[3]
  Diameter: 9 ± 2 nm
  Pitch length: 105 ± 20 nm
  Structures comments: Rather homogeneous
  Structure (TEM): fibrillar structures
[3]; listed as β1
  Diameter: ~10 nm
  Pitch length: ~100 nm
[3]; listed as ß1*
  Structure (TEM): Double/Twisted fibers

## VQKIYV [4p]
[1]
  Aggregation properties, in words: no
[2]
  Classification of the peptide (aggregative / amyloid / soluble), in words: entirely soluble; also recorded: non-aggregative

## VQVIYK [12p]
[6]
  Reversion of structures after dilution, in words: almost total reversion
[2]
  Classification of the peptide (aggregative / amyloid / soluble), in words: amyloid
[3]
  Diameter, Tight: 7 nm
  Diameter, Wide: 15 nm
  Pitch length: 177 ± 26 nm
  Structures comments: Twisting of at least four filaments
  Structure (TEM): fibrillar structures
[3]; listed as 12p*
  Structure (TEM): Twisted Stringy filaments/fibers

## VQVKYI [21p]
[6]
  Reversion of structures after dilution, in words: almost total reversion
[2]
  Classification of the peptide (aggregative / amyloid / soluble), in words: amyloid; also recorded: amyloidogenic character
[3]
  Diameter: 25 ± 6 nm
  Structures comments: Variable size / aggregates
  Structure (TEM): globular/ovoid structures
[3]; listed as 21p*
  Structure (TEM): Globular/ovoid

## VQVYKI [22p]
[2]
  Classification of the peptide (aggregative / amyloid / soluble), in words: aggregative; also recorded: soluble
[3]
  Structures comments: Highly heterogeneous
  Structure (TEM): fibrillar structures; also recorded: Twisted ribbons bundles/fibers

## VVQKYI [6p]
[1]
  Aggregation properties, in words: very weak
[2]
  Classification of the peptide (aggregative / amyloid / soluble), in words: entirely soluble; also recorded: non-aggregative

## YIVVQK [13p]
[1]
  Aggregation properties, in words: no
[2]
  Classification of the peptide (aggregative / amyloid / soluble), in words: entirely soluble

## YQVIVK [17p]
[7]
  Amyloidogenicity by Thioflavin T fluorescence, in words: without fluorescence
[2]
  Classification of the peptide (aggregative / amyloid / soluble), in words: aggregative
[3]
  Structures comments: Flat/short tangled, heterogeneous
  Width: 14 ± 2 nm
  Structure (TEM): structures resembling ribbons

## YQVKIV [16p]
[1]
  Aggregation properties, in words: strong aggregation
[1]; 16p studied at ~290 μM (288 μM) due to poor solubility in water
  Aggregation Threshold: 17 µM
[7]
  Amyloidogenicity by Thioflavin T fluorescence, in words: not amyloidogenic
[2]
  Classification of the peptide (aggregative / amyloid / soluble), in words: strong aggregation potential
[3]
  Pitch length: 44 ± 4 nm
  Structures comments: Very homogeneous, perpendicular breaks
  Width: 22±3 nm
  Structure (TEM): structures resembling ribbons; also recorded: Rather ribbons
[8]
  Solubility in water, in words: poor solubility in water
[8]; listed as 16p*
  Solubility in water, in words: low solubility in water
